Each structure is given as a SMILES string. Structures can show the parent of a compound that is named as a salt. Where two headings read alike, the source gives them in different places.

The values that follow come from patent publication US12662451B2, “Chemical compounds and uses thereof” (GLAXOSMITHKLINE INTELLECTUAL PROPERTY (NO.4) LIMITED, priority 2023, dated 2026).

Data set [1] addresses T1, recombinant full-length WRN protein (1-1432) (Homo sapiens, UniProt Q14191).
T1 construct: recombinant full-length WRN protein (1-1432)
As to the kind of experiment: WRN unwinding activity, fluorogenic 384-well assay (Example A). Conditions: WRN unwinding activity, 4 hr; Table 2; read-out: 4 hr UNW pIC50 (converted). The class given is biochemical. An outline of the steps: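 200 pM enzyme (2× stock) preincubated with compound 4 h at ambient temperature, then 200 μM ATP and 12 nM quenched TAMRA-labelled dsDNA (2× stocks) added for 60 min; EDTA-quenched. Buffer 25 mM Tris pH 8.0, 5 mM NaCl, 2 mM MgCl2. Fluorescence at 525/598 nm; pIC50 from four-parameter fit.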

Data set [2] has as its system SW48 human colorectal cancer cells (MSI-H cancer cells). Description: SW48 cell viability, CellTiter-Glo, 120 hours (Example B). Conditions: Homo sapiens.
Data set [3] is described as follows: Cell culture media unbound percentage and stability by rapid equilibrium dialysis (Example C). Type of data set: in vitro ADME. Conditions: bovine, cell assay medium (RPMI-1640 with 10% fetal bovine serum), pH 7.4, rapid equilibrium dialysis, 4 hours at 37° C., read-out: Cell Culture Media Binding (% unbound). The procedure: It was observed that the compounds of the present disclosure are bound to cell assay media to various degrees, which would affect the cellular potency analysis in Example B. To measure free drug potency, concentrations used in the cell assays were corrected with the measured free fraction determined in the cell assay media. Compounds were incubated in a rapid equilibrium dialysis (RED) at a nominal concentration of 1 μM, using a dialysis buffer of phosphate-buffered saline (PBS, 100 mM sodium phosphate+150 mM sodium chloride, pH 7.4). The test compound was spiked into the medium. Aliquots were added to the donor wells of a RED plate in triplicate, and blank PBS was added to each receiver well, at volumes recommended by the manufacturer. Plates were incubated with shaking at 200 rpm for 4 hours at 37° C. The resultant samples were analysed by LC-MS/MS using a specific and sensitive method. Results were reported as analyte:internal standard peak area ratios (PARs), and the percent unbound was calculated with the following equation:
[formula] where D=the matrix dilution factor (D=1 for media); Apparent Fu=Crec/Cdon; Crec=PAR in receiver samples; Cdon=PAR in donor samples. Percent stability was calculated by:
[formula] where Cfinal=PAR in the T=240 minute sample; Cinitial=PAR in the T=0 minute sample. Cell culture media unbound percentage and calculated free drug potency of selected compounds along with their measured potency from Example B are shown in Table 3.

The test system of data set [4] is SW48 human colorectal cancer cells. Description: Calculated free drug potency in SW48 cell assay, corrected with media free fraction (Example C). Type of data set: cell-based. As to conditions: Homo sapiens, SW48, SW48 pCC50 corrected with measured free fraction in cell assay media. In outline: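 Compound spiked at nominal 1 μM into cell assay medium and dialysed against PBS (100 mM sodium phosphate, 150 mM NaCl, pH 7.4) by rapid equilibrium dialysis, 4 h, 37 °C, shaking. Percent unbound from LC-MS/MS peak area ratios (240 min vs 0 min); cell assay concentrations corrected by this free fraction.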

The mark [5] stands for this setting: SW48, 120 h, read-out: SW48 pCC50, SW48 cell viability, 120 hours incubation (converted), Table 2.
Setting [6] is: SW48, read-out: SW48 pCC50, measured potency from Example B, as repeated in Table 3 (converted).

T1 sequence (Q14191 whole entry): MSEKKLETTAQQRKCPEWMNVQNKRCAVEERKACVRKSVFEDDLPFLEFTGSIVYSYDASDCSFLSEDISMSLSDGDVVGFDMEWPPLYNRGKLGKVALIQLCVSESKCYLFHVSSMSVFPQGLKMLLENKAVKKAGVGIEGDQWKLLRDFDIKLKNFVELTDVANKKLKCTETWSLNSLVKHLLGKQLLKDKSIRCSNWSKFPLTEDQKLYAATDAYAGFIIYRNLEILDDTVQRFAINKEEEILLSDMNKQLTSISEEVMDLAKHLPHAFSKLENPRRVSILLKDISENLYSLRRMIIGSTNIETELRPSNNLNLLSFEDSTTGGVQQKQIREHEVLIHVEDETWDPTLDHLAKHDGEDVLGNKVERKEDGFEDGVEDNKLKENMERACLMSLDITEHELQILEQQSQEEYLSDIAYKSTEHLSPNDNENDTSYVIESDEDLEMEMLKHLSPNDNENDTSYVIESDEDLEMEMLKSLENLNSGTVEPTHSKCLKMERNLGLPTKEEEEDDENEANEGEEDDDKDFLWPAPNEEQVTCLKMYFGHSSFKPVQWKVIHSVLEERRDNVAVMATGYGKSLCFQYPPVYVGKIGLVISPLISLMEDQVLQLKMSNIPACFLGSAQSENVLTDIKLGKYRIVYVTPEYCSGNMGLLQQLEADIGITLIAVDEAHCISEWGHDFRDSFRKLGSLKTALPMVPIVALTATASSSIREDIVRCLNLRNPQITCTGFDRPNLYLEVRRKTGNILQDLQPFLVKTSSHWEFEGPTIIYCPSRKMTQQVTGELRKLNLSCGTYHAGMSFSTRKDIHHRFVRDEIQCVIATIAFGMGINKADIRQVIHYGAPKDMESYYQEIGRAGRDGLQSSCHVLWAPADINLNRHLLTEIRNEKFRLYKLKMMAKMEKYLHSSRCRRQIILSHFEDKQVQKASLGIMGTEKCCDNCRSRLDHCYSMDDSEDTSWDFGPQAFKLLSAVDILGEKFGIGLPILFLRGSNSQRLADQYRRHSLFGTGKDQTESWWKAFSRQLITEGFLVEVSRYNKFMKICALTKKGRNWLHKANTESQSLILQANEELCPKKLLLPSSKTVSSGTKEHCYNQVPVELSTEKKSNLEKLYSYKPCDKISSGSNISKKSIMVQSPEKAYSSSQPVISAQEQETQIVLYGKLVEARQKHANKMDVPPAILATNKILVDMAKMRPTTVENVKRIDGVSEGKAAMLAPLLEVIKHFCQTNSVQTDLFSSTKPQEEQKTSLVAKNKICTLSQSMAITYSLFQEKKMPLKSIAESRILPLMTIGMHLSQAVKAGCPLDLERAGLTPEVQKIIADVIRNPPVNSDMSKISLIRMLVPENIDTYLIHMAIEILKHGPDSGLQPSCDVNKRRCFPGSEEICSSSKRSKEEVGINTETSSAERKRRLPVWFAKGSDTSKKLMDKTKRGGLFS

In the case of `CCO[C@@H]1C[C@H](c2ccc(N(C)S(=O)(=O)c3ccc4c(c3)nc(C)n4C)cc2)[C@@H](C(=O)O)[C@H](C(=O)Nc2ccc(C(F)(F)F)cn2)C1` (single isomer, unassigned) [Example 199], the IC50 in data set [1] is 2.51 nM. The values for the CC50 in data set [2] (setting [5]), in data set [2] (setting [6]) and in data set [4] were 501 nM, 501 nM and 79.4 nM, respectively. Besides, the fraction unbound at 4 h, 1 µM in data set [3] stood at 0.16.

Consider `Cc1nc2cc(S(=O)(=O)N(C)c3ccc([C@@H]4CCC[C@H](COc5ccc(C(F)(F)F)cc5)[C@H]4C(=O)O)cc3)cc([C@@H]3CCCN(C)C3)c2n1C` (single isomer, unassigned) [Example 211, formic acid salt], for which, in data set [1], the IC50 was 2 nM. Also, the CC50 is 3160 nM in data set [2] (setting [5]), 3160 nM in data set [2] (setting [6]) and 66.1 nM in data set [4]. In addition, the fraction unbound at 4 h, 1 µM in data set [3] is 0.0208.

On to `Cc1nc2cc(S(=O)(=O)N(C)c3ccc([C@@H]4CCC[C@H](COc5ccc(C(F)(F)F)cc5)[C@H]4C(=O)O)cc3)cc([C@H]3CCCN(C)C3)c2n1C` (single isomer, unassigned) [Example 212], for which the IC50 in data set [1] was 1.58 nM. Besides, the CC50 in data set [2] (setting [5]) was 2000 nM; in data set [2] (setting [6]), 2000 nM; in data set [4] it was 40.7 nM. For the same compound, in data set [3], the fraction unbound at 4 h, 1 µM was found to be 0.0205.

For the compound `CCO[C@H]1C[C@@H](COc2ccc(C(F)(F)F)cc2)[C@H](C(=O)O)[C@@H](c2ccc(N(C)S(=O)(=O)c3ccc4c(c3)nc(C)n4C)cc2)C1` (single isomer, unassigned) [Example 221], in data set [1], the IC50 was 3.98 nM. For the same compound, the CC50 in data set [2] (setting [5]) is 2000 nM; in data set [2] (setting [6]), 2000 nM; in data set [4], 81.3 nM. Also, the fraction unbound at 4 h, 1 µM in data set [3] worked out at 0.0411.

Consider `Cc1nc2cc(S(=O)(=O)Nc3ccc([C@@H]4CCC[C@H](C(=O)Nc5ccc(C(F)(F)F)cc5F)[C@H]4C(=O)O)cc3)ccc2n1C` (single isomer, unassigned) [Example 224], for which the IC50 in data set [1] is 1.26 nM. The CC50 in data set [2] (setting [5]) is 501 nM; in data set [2] (setting [6]) it was 501 nM; in data set [4] it was 17.8 nM. In addition, in data set [3], the fraction unbound at 4 h, 1 µM was determined as 0.0355.

With `Cc1nnc(-c2cc([C@@H]3CCC[C@H](C(=O)Nc4ccc(C(F)(F)F)cc4F)[C@H]3C(=O)O)ccc2C(F)(F)F)o1` (single isomer, unassigned) [Example 245], the IC50 in data set [1] is 7.94 nM. The CC50 in data set [2] (setting [5]) is 7940 nM; in data set [2] (setting [6]) it was 7940 nM; in data set [4], 776 nM. For the same compound, the fraction unbound at 4 h, 1 µM in data set [3] worked out at 0.0971.

In the case of `CN[C@H]1C[C@H](c2ccc(N(C)S(=O)(=O)c3ccc4c(c3)nc(C)n4C)cc2)[C@@H](C(=O)O)[C@H](C(=O)Nc2ccc(C(F)(F)F)cc2F)C1` (single isomer, unassigned) [Example 254], the IC50 in data set [1] is 25.1 nM. The results for the CC50 in data set [2] (setting [5]) and in data set [4] were 10000 nM and 2340 nM, respectively. Besides, the fraction unbound at 4 h, 1 µM in data set [3] came to 0.234.

Consider `CN[C@H]1C[C@H](C(=O)Nc2ccc(C(F)(F)F)cc2F)[C@@H](C(=O)O)[C@H](c2ccc(N(C)S(=O)(=O)c3ccc4c(c3)nc(C)n4C)cc2)C1` (single isomer, unassigned) [Example 255], for which the IC50 in data set [1] is 158 nM. Moreover, the CC50 in data set [2] (setting [5]) is 7940 nM; in data set [2] (setting [6]) it was 7940 nM; in data set [4] it was 3470 nM. For the same compound, in data set [3], the fraction unbound at 4 h, 1 µM came out at 0.439.

With `CN[C@@H]1C[C@H](c2ccc(N(C)S(=O)(=O)c3ccc4c(c3)nc(C)n4C)cc2)[C@@H](C(=O)O)[C@H](C(=O)Nc2ccc(C(F)(F)F)cc2F)C1` (single isomer, unassigned) [Example 256], the IC50 in data set [1] is 1.26 nM. Besides, the CC50 is 6310 nM in data set [2] (setting [5]), 6310 nM in data set [2] (setting [6]) and 1780 nM in data set [4]. Also, the fraction unbound at 4 h, 1 µM in data set [3] came out at 0.284.
